Measurements published in USRE48461E1, “Modulation of androgen receptor expression” (Ionis Pharmaceuticals, Inc., priority 2012, dated 2021).
Oligonucleotides are written 5' to 3', each unit as a sugar letter and its base; * is a phosphorothioate linkage, no mark a phosphodiester; rarer units and linkages stand in square brackets, end groups in braces. Plain capitals give the bases only. e = 2'-O-(2-methoxyethyl) (MOE); k = constrained ethyl (cEt); [5mC] = 5-methylcytosine; d = 2'-deoxy (DNA)

Tests used:
[1] = cynomolgus monkey, in vivo, sc, 40 mg/kg
Protocol: (§6) Prior to the study, the monkeys were kept in quarantine for a 30-day period, during which the animals were observed daily for general health. The monkeys were 2-4 years old and weighed between 2 and 4 kg. Thirteen groups of four randomly assigned male cynomolgus monkeys each were injected subcutaneously with ISIS oligonucleotide or PBS. PBS solution or ISIS oligonucleotides, at a dose of 40 mg/kg, were administered with a loading regimen consisting of four doses on the first week of the study (days 1, 3, 5, and 7), followed by a maintenance regimen consisting of once weekly administration starting on Day 14 (weeks 2 to 6). Subcutaneous injections were performed in clock-wise rotations at 4 sites on the back; one site per dose. The injection sites were delineated by tattoo, while sedated using ketamine, and were separated by a minimum of 3 cm.
To evaluate the effect of ISIS oligonucleotides on hepatic function, the monkeys were fasted overnight. Approximately, 1.5 mL of blood samples were collected on day 44 from all the study groups. Blood was collected in tubes without anticoagulant for serum separation. The tubes were kept at room temperature for a minimum of 90 min and then centrifuged at 3,000 rpm for 10 min. Levels of various liver function markers were measured using a Toshiba 120FR NEO chemistry analyzer (Toshiba Co., Japan).

[2] = cynomolgus monkey, in vivo; for Oligonucleotide concentration, Kidney / Oligonucleotide concentration, Liver: sc, 40 mg/kg
Protocol: as §6
The concentrations of the full-length oligonucleotide in the kidney and the liver of select treatment groups were measured. The method used is a modification of previously published methods (Leeds et al., 1996; Geary et al., 1999) which consist of a phenol-chloroform (liquid-liquid) extraction followed by a solid phase extraction.

[3] = cynomolgus monkey, in vivo, sc, 40 mg/kg; remark: listed apart in the source
Protocol: as §6
To evaluate the effect of ISIS oligonucleotides on kidney function, the monkeys were fasted overnight. Approximately, 1.5 mL of blood samples were collected from all the study groups on day 44. Blood was collected in tubes without anticoagulant for serum separation. The tubes were kept at room temperature for a minimum of 90 min and then centrifuged at 3,000 rpm for 10 min. Levels of BUN and creatinine were measured using a Toshiba 120FR NEO chemistry analyzer (Toshiba Co., Japan).

[4] = cynomolgus monkey, in vivo, sc, 40 mg/kg; remark: listed apart in the source
Protocol: The monkeys were 2-4 years old and weighed between 2 and 4 kg. Thirteen groups of four randomly assigned male cynomolgus monkeys each were injected subcutaneously with ISIS oligonucleotide or PBS. PBS solution or ISIS oligonucleotides, at a dose of 40 mg/kg, were administered with a loading regimen consisting of four doses on the first week of the study (days 1, 3, 5, and 7), followed by a maintenance regimen consisting of once weekly administration starting on Day 14 (weeks 2 to 6). Subcutaneous injections were performed in clock-wise rotations at 4 sites on the back; one site per dose. The injection sites were delineated by tattoo, while sedated using ketamine, and were separated by a minimum of 3 cm.
To evaluate any inflammatory effect of ISIS oligonucleotides in cynomolgus monkeys, the monkeys were fasted overnight. Approximately, 1.5 mL of blood samples were collected from all the study groups on day 44. Blood was collected in tubes without anticoagulant for serum separation. The tubes were kept at room temperature for a minimum of 90 min and then centrifuged at 3,000 rpm for 10 min. C-reactive protein (CRP), which is synthesized in the liver and which serves as a marker of inflammation, was measured on day 43 using a Toshiba 120FR NEO chemistry analyzer (Toshiba Co., Japan). Complement C3 was also measured similarly, and the data is presented as a percentage of baseline values.

testosterone = assay: Serum testosterone levels in cynomolgus monkeys (ELISA); format: in vivo; conditions: cynomolgus monkey, 40 mg/kg subcutaneously
Protocol: Serum testosterone protein levels were measured in the plasma with an ELISA kit (Enzo Life Sciences), following the manufacturer's instructions.

[5] = cynomolgus monkey, in vivo, sc, 40 mg/kg; remark: listed apart in the source
[6] = cynomolgus monkey, in vivo, sc, 40 mg/kg; remark: listed apart in the source
Protocol: as §6
To evaluate the effect of ISIS oligonucleotides on the overall health of the animals, body and organ weights were measured.

[7] = cynomolgus monkey, in vivo, sc, 40 mg/kg; remark: listed apart in the source
Protocol: as §6
Kidney function was also assessed by urinalysis. Fresh urine from all animals was collected on day 44 using a clean cage pan on wet ice. Food was removed overnight the day before fresh urine collection was done but water was supplied. The total protein and creatinine levels were measured using a Toshiba 120FR NEO automated chemistry analyzer (Toshiba Co., Japan) and the protein to creatinine ratio was calculated.

AR mRNA = AR mRNA in C4-2B cells by free uptake (hAR_LTS00943); format: cell-based, human; conditions: 24 hrs; for Percent inhibition of AR full-length mRNA: free uptake
Protocol: (§1) Cells were plated at a concentration of 1,000 cells/well in 96-well plates to measure cell proliferation, and at 4,000 cells/well to measure target reduction. ISIS 549458, ISIS 549372, ISIS 549434, and ISIS 554221 were added individually at 0.04 μM, 0.20 μM, 1.00 μM, or 5.00 μM. After an incubation period of 24 hrs, mRNA levels were measured using hAR_LTS00943.

full-length AR = assay: Western blot of full-length AR in MDV3100-resistant C4-2B cells; format: cell-based, human; conditions: C4-2B MR cells (Example 16)
Protocol: (§2) ISIS 549372, ISIS 549434, and ISIS 554221 at 1 μM concentration of antisense oligonucleotide were each added to the culture media at 1 μM concentration for free uptake by the cells. After a treatment period of 2 days, cells were harvested in RIPA buffer containing protease inhibitors. The presence of bands for full-length AR, as well as the variant form, AR-V7, was detected by western blot using AR antibody (N-20, Santa Cruz).
(§3) Western analysis of full-length AR, as well as the AR-V7 variant, was also conducted in a manner similar to the assay described above.

C4-2B MR cells = assay: Proliferation of MDV3100-resistant C4-2B cells (CellTiter 96); format: cell-based, human; conditions: 0.04-5.00 μM, 6 days
Protocol: ISIS 549372, ISIS 549434, ISIS 549458, and ISIS 554221 were each added to the culture media at 0.04 μM, 0.20 μM, 1.00 μM, and 5.00 μM concentration of antisense oligonucleotide. ISIS 347526 was included as a negative control. After a treatment period of 6 days, the proliferative capacity of the cancer cells was measured with using CellTiter 96® AQueous One Solution Cell Proliferation kit (Promega), following the manufacturer's instructions. Results are presented in Table 41 as percent inhibition of proliferation, relative to non-treated cells.

total AR mRNA = assay: Total (full-length) AR mRNA in C4-2B MR cells, free uptake; format: cell-based, human; conditions: C4-2B MR cells, 0.04-5.00 μM free uptake, 24 hrs
Protocol: Cells were plated at a density of 40,000 cells per well in 96-well plates and cultured in RPMI1640 medium with 10% fetal bovine serum. […] ISIS 549372, ISIS 549458, ISIS 549434, and ISIS 554221 were each added at 0.04 μM, 0.20 μM, 1.00 μM, and 5.00 μM concentrations of antisense oligonucleotide to culture media for free uptake by the cells. […] After a treatment period of 24 hrs, total AR mRNA levels were measured by quantitative real-time PCR using primer probe set RTS3559.

C4-2B cells = assay: C4-2B cell proliferation by free uptake (MTT); format: cell-based, human; conditions: day 6
Protocol: as §1
On day 6, cells plated for measuring proliferation were incubated with MTT reagent until the development of color. Color intensity was measured using a spectrophotometer at 490 nm.

AR full-length mRNA = AR full-length mRNA in CWR22-RV1 cells (RNAiMax, RTS3559); format: cell-based, human; conditions: 6 days
Protocol: (§4) CWR22-RV1 cells were plated and transfected using RNAiMax reagent (Life Technologies) with ISIS oligonucleotides at 1.7 nM, 5.0 nM, 16.7 nM, or 50 nM concentrations. ISIS 347526 was included as a negative control. After a treatment period of 6 days, the target reduction and proliferative capacity of the cancer cells was measured.
(§5) Antisense inhibition of AR full-length mRNA was measured with the RTS3559 primer probe set. The results are presented in Table 63 as percent inhibition relative to non-treated cells. The reduction in V7 splice variant of the AR mRNA was also measured by RT-PCR using SYBR Green staining (Hu, R. et al., Cancer Res. 2009. 69: 16-22). The results are presented in Table 64, as percent reduction, relative to non-treated cells. Cell proliferation was measured with CellTiter 96® AQueous One Solution Cell Proliferation kit (Promega), following the manufacturer's instructions. Results are presented in Table 65 as percent inhibition of proliferation, relative to non-treated cells.

KLK3 mRNA = KLK3 mRNA (AR target gene) in C4-2B MR cells; format: cell-based, human; conditions: C4-2B MR cells, 0.04-5.00 μM
KLK2 mRNA = KLK2 mRNA (AR target gene) in C4-2B MR cells; format: cell-based, human; conditions: C4-2B MR cells, 0.04-5.00 μM
CWR22-RV1 cells = assay: CWR22-RV1 cell proliferation (CellTiter 96); format: cell-based, human; conditions: RNAiMax, 6 days
Protocol: as §4, §5

[8] = test system: V7 splice variant of the AR mRNA; assay: AR V7 splice variant mRNA in CWR22-RV1 cells (RT-PCR SYBR Green); format: cell-based, human; conditions: RNAiMax, 6 days
Protocol: as §4, §5

AR-V7 = assay: Western blot of AR-V7 in MDV3100-resistant C4-2B cells; format: cell-based, human; conditions: C4-2B MR cells (Example 16)
Protocol: as §2, §3

TGATTTAATGGTTGCA [ISIS 569221] (cEt/MOE gapmer chemistry, further chemistry not given here)
ALT [1]: 48 IU/L
AST [1]: 73 IU/L
Albumin [1]: 4.0 g/dL
Oligonucleotide concentration, Kidney [2]: 1372 μg/g tissue
Oligonucleotide concentration, Liver [2]: 966 μg/g tissue
Plasma BUN [3]: 20.2 mg/dL
Plasma Creatinine [3]: 0.86 mg/dL
C3 (% of baseline) [4]: 91 % of baseline
CRP [4]: 4.9 mg/dL
Serum testosterone level (testosterone; 40 mg/kg): 8.8 ng/mL
HCT [5]: 45%
Hemoglobin [5]: 12.9 g/dL
Platelets [5]: 406000 µL
RBC [5]: 5.6e+06 µL
WBC [5]: 11100 µL
Body Wt [6]: 2.5 kg
Heart weight [6]: 8.5 g
Kidney weight [6]: 14 g
Liver weight [6]: 68 g
Mesenteric lymph nodes weight [6]: 3.5 g
Spleen weight [6]: 3.3 g

ISIS 584269: antisense compound targeted to human AR (CCTTATGGATGCTGCT; 3-10-3 (S)-cEt gapmer, further chemistry not given here)
ALT [1]: 75 IU/L
AST [1]: 81 IU/L
Albumin [1]: 4.0 g/dL
K/L ratio [2]: 4.0
Oligonucleotide concentration, Kidney [2]: 2823 μg/g tissue
Oligonucleotide concentration, Liver [2]: 698 μg/g tissue
Plasma BUN [3]: 21.8 mg/dL
Plasma Creatinine [3]: 0.89 mg/dL
C3 (% of baseline) [4]: 102 % of baseline
CRP [4]: 4.9 mg/dL
Serum testosterone level (testosterone): 14.1 ng/mL
HCT [5]: 41%
Hemoglobin [5]: 12.4 g/dL
Platelets [5]: 522000 µL
RBC [5]: 5.2e+06 µL
WBC [5]: 9800 µL
Urine protein/creatinine ratio [7]: 0.00
Body Wt [6]: 2.5 kg
Heart weight [6]: 8.7 g
Kidney weight [6]: 13 g
Liver weight [6]: 60 g
Mesenteric lymph nodes weight [6]: 3.6 g
Spleen weight [6]: 4.7 g

ISIS 584468: antisense compound targeted to human AR (CATTGTACTATGCCAG; 3-10-3 (S)-cEt gapmer, further chemistry not given here)
ALT [1]: 46 IU/L
AST [1]: 52 IU/L
Albumin [1]: 4.0 g/dL
K/L ratio [2]: 5.2
Oligonucleotide concentration, Kidney [2]: 2441 μg/g tissue
Oligonucleotide concentration, Liver [2]: 474 μg/g tissue
Plasma BUN [3]: 22.2 mg/dL
Plasma Creatinine [3]: 0.78 mg/dL
C3 (% of baseline) [4]: 111 % of baseline
CRP [4]: 1.3 mg/dL
Serum testosterone level (testosterone): 13.6 ng/mL
HCT [5]: 45%
Hemoglobin [5]: 13.5 g/dL
Platelets [5]: 408000 µL
RBC [5]: 5.9e+06 µL
WBC [5]: 11100 µL
Urine protein/creatinine ratio [7]: 0.00
Body Wt [6]: 2.5 kg
Heart weight [6]: 8.3 g
Kidney weight [6]: 13 g
Liver weight [6]: 60 g
Mesenteric lymph nodes weight [6]: 3.8 g
Spleen weight [6]: 4.1 g

TTGATTTAATGGTTGC [ISIS 579671] (cEt/MOE gapmer chemistry, further chemistry not given here)
ALT [1]: 56 IU/L
AST [1]: 53 IU/L
Albumin [1]: 4.0 g/dL
K/L ratio [2]: 3.0
Oligonucleotide concentration, Kidney [2]: 2576 μg/g tissue
Oligonucleotide concentration, Liver [2]: 871 μg/g tissue
Plasma BUN [3]: 22.7 mg/dL
Plasma Creatinine [3]: 0.74 mg/dL
C3 (% of baseline) [4]: 101 % of baseline
CRP [4]: 4.5 mg/dL
Serum testosterone level (testosterone; 40 mg/kg): 7.3 ng/mL
HCT [5]: 42%
Hemoglobin [5]: 12.5 g/dL
Platelets [5]: 438000 µL
RBC [5]: 5.4e+06 µL
WBC [5]: 10000 µL
Urine protein/creatinine ratio [7]: 0.00
Body Wt [6]: 2.4 kg
Heart weight [6]: 8.8 g
Kidney weight [6]: 14 g
Liver weight [6]: 62 g
Mesenteric lymph nodes weight [6]: 2.5 g
Spleen weight [6]: 3.2 g

CTAAACTTCCCGTGGC (k[5mC]*kT*kA*dA*dA*d[5mC]*dT*dT*d[5mC]*d[5mC]*d[5mC]*dG*dT*kG*kG*k[5mC]) [ISIS 549434, targets 3'-end of exon 8]
AR mRNA expression (AR mRNA; free uptake 0.04-5.00 μM): inhibited AR mRNA expression more potently than ISIS 554221
Percent inhibition of AR full-length mRNA (AR mRNA; dose 0.04 μM): 10%
Percent inhibition of AR full-length mRNA (AR mRNA; dose 0.20 μM): 35%
Percent inhibition of AR full-length mRNA (AR mRNA; dose 1.00 μM): 52%
Percent inhibition of AR full-length mRNA (AR mRNA; dose 5.00 μM): 55%
levels of full-length AR (Western analysis) (full-length AR): reduced levels of full-length AR
proliferation of C4-2B MR cells (C4-2B MR cells): reduced proliferation of the cells in a dose dependent manner more extensively than treatment with ISIS 554221
total AR transcript levels (total AR mRNA): reduced total AR transcript levels in a dose dependent manner more extensively than treatment with ISIS 554221
Percent inhibition of cell proliferation (C4-2B cells; dose 0.04 μM): 0%
Percent inhibition of cell proliferation (C4-2B cells; dose 0.20 μM): 14%
Percent inhibition of cell proliferation (C4-2B cells; dose 1.00 μM): 35%
Percent inhibition of cell proliferation (C4-2B cells; dose 5.00 μM): 37%
Percent inhibition of AR full-length mRNA (AR full-length mRNA; dose 5.0 nM): 46%
Percent inhibition of AR full-length mRNA (AR full-length mRNA; dose 16.7 nM): 69%
Percent inhibition of AR full-length mRNA (AR full-length mRNA; dose 50.0 nM): 86%
AR target gene KLK3 mRNA levels (KLK3 mRNA): reduced target gene levels in a dose dependent manner more extensively than treatment with ISIS 554221
AR target gene KLK2 mRNA levels (KLK2 mRNA): reduced target gene levels in a dose dependent manner more extensively than treatment with ISIS 554221
Percent inhibition of cell proliferation (CWR22-RV1 cells; dose 5.0 nM): 15%
Percent inhibition of cell proliferation (CWR22-RV1 cells; dose 16.7 nM): 13%
Percent inhibition of cell proliferation (CWR22-RV1 cells; dose 50.0 nM): 38%
Percent inhibition of AR splice variant, V7 ([8]; dose 5.0 nM): 20%
Percent inhibition of AR splice variant, V7 ([8]; dose 16.7 nM): 4%
Percent inhibition of AR splice variant, V7 ([8]; dose 50.0 nM): 23%

TCTTATGTTTCCGAACCGTT (sugars from the 5' end e5 d10 e5, backbone and methylation of C not given here) [ISIS 347526, reference compound]
levels of full-length AR (Western analysis) (full-length AR): did not reduce protein levels
levels of AR-V7 (Western analysis) (AR-V7): did not reduce protein levels
Percent inhibition of AR full-length mRNA (AR full-length mRNA; dose 5.0 nM): 3%
Percent inhibition of AR full-length mRNA (AR full-length mRNA; dose 16.7 nM): 4%
Percent inhibition of AR full-length mRNA (AR full-length mRNA; dose 50.0 nM): 0%
Percent inhibition of cell proliferation (CWR22-RV1 cells; dose 5.0 nM): 0%
Percent inhibition of cell proliferation (CWR22-RV1 cells; dose 16.7 nM): 0%
Percent inhibition of cell proliferation (CWR22-RV1 cells; dose 50.0 nM): 0%
Percent inhibition of AR splice variant, V7 ([8]; dose 5.0 nM): 0%
Percent inhibition of AR splice variant, V7 ([8]; dose 16.7 nM): 0%
Percent inhibition of AR splice variant, V7 ([8]; dose 50.0 nM): 10%
